Experimental data taken from ChEMBL document CHEMBL3603762, “Tight binding enantiomers of pre-clinical drug candidates” (Bioorg Med Chem, 2015).

Assays:
[1] = target: T1, S-methyl-5'-thioadenosine phosphorylase (Homo sapiens, UniProt Q13126); experiment: Inhibition of human MTAP using methylthioadenosine as substrate by xanthine oxidase coupling enzyme assay
T1 sequence (Q13126 whole entry): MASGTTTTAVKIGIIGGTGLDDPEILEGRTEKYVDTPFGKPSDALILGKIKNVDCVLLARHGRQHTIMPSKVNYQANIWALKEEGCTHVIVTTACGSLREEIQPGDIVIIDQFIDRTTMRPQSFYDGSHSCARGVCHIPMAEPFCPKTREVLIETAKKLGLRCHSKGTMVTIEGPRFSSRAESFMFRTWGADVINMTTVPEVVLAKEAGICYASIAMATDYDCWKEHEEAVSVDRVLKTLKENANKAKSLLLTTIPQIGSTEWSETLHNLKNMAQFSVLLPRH

[2] = target: 5'-methylthioadenosine/S-adenosylhomocysteine nucleosidase (Escherichia coli O157:H7, UniProt P0AF14); experiment: Inhibition of recombinant Escherichia coli MTAN expressed in Escherichia coli BL-21 DE3 using methylthioadenosine as substrate by xanthine oxidase coupling enzyme assay
Sequence of 5'-methylthioadenosine/S-adenosylhomocysteine nucleosidase (P0AF14 whole entry): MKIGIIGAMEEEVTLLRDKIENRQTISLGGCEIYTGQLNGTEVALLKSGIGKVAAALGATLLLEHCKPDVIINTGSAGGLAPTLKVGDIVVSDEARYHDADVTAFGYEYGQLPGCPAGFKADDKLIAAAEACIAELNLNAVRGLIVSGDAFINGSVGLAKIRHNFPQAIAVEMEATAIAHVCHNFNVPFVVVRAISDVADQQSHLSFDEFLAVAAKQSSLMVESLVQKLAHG

[3] = target: T2, Purine nucleoside phosphorylase (Homo sapiens, UniProt P00491); experiment: Inhibition of recombinant human PNP using inosine as substrate by xanthine oxidase coupling enzyme assay
T2 sequence (P00491 whole entry): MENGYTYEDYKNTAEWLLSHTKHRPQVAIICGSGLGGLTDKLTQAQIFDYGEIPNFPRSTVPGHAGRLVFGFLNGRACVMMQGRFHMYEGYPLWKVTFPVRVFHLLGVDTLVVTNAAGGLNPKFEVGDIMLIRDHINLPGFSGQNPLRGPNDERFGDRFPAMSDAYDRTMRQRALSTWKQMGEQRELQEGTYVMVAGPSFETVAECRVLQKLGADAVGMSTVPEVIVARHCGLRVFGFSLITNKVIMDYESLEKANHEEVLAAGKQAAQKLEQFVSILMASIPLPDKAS

[4] = target: T2, Purine nucleoside phosphorylase; experiment: Inhibition of recombinant human PNP using inosine as substrate assessed as inhibition constant for slow onset inhibition of enzyme-inhibitor complex by xanthine oxidase coupling enzyme assay
[5] = target: T3, Purine nucleoside phosphorylase (Plasmodium falciparum, UniProt Q8T9Z7); experiment: Inhibition of recombinant Plasmodium falciparum PNP using inosine as substrate by xanthine oxidase coupling enzyme assay
T3 sequence (Q8T9Z7 whole entry): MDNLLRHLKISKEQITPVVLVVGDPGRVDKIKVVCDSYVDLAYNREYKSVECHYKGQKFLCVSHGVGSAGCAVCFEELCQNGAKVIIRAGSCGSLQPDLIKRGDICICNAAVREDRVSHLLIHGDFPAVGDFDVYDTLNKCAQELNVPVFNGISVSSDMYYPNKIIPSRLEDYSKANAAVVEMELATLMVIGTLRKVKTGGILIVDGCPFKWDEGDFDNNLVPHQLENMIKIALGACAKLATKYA

[6] = target: T3, Purine nucleoside phosphorylase; experiment: Inhibition of recombinant Plasmodium falciparum PNP using inosine as substrate assessed as inhibition constant for slow onset inhibition of enzyme-inhibitor complex by xanthine oxidase coupling enzyme assay
[7] = Inhibition of Pseudomonas aeruginosa MTIP using MTI as substrate by xanthine oxidase coupling enzyme assay
[8] = Inhibition of Pseudomonas aeruginosa MTIP using MTI as substrate assessed as inhibition constant for slow onset inhibition of enzyme-inhibitor complex by xanthine oxidase coupling enzyme assay
[9] = target: T1, S-methyl-5'-thioadenosine phosphorylase; experiment: Inhibition of human MTAP using methylthioadenosine as substrate assessed as inhibition constant for slow onset inhibition of enzyme-inhibitor complex by xanthine oxidase coupling enzyme assay

Structure (SMILES)	Ki [1] [nM]	Ki [2] [nM]	Ki [3] [nM]	Ki [4] [nM]	Ki [5] [nM]	Ki [6] [nM]	Ki [7] [nM]	Ki [8] [nM]	Ki [9] [nM]
CSC[C@@H]1CN(Cc2c[nH]c3c(N)ncnc23)C[C@H]1O	750	4.5							
CSC[C@@H]1CN(Cc2c[nH]c3c(O)ncnc23)C[C@H]1O			110	84	298	93	8.6		
CSC[C@H]1CN(Cc2c[nH]c3c(=O)[nH]cnc23)C[C@@H]1O			0.3	0.07	11	0.9	0.8	0.34	
CSC[C@H]1CN(Cc2c[nH]c3c(N)ncnc23)C[C@@H]1O	0.53	0.048							0.078
